Assay [1] concerns the target T1, wild-type human B2R with wild-type Gq (Homo sapiens, UniProt P30411).
T1 construct: expressed in transfected cells; host or cells: CHO cells
The assay is described as follows: Calcium mobilization, CHO cells, WT-B2R & WT-Gq (Calcium-5 kit, Flexstation 3, ex 485/em 525 nm). Format: cell-based. To be noted: kallidin-induced calcium mobilization, Mean±S.E.M. from three independent experiments. As to the method: (§1) CHO cells transfected with wild-type or mutated B2R and wild-type or mutated Gq were seeded into 96-well black plates at a density of 30,000 cells per well and incubated for 24 h. Then cells were loaded with reagents from Calcium-5 Assay Kit (Molecular Devices) for 45 min at 37 °C in 5% CO2 according to the manufacturer’s protocol. […] Data were analyzed by GraphPad Prism 5 and presented as Mean ± S.E.M. from three independent experiments.
Supplementary Table 1 . Calcium mobilization results of WT and mutated constructs. Emax and pEC50 values were presented as Mean±S.E.M. from three independent experiments. Source data are provided as a Source Data file.
Supplementary Table 3. […] Emax and […]
(§2) pEC50 values were presented as Mean±S.E.M. from three independent experiments.
(§3) NA represented not available. Source data are provided as a Source Data file.
(In general: Calcium flux is commonly read through the fluorescence of an indicator in the cells.)

The target of assay [2] is T2, wild-type human B2R with CryoEM Gq (R183Q, Q209L) (Homo sapiens, UniProt P30411).
T2 construct: expressed in transfected cells; host or cells: CHO cells
T2 sequence (P30411 1-391): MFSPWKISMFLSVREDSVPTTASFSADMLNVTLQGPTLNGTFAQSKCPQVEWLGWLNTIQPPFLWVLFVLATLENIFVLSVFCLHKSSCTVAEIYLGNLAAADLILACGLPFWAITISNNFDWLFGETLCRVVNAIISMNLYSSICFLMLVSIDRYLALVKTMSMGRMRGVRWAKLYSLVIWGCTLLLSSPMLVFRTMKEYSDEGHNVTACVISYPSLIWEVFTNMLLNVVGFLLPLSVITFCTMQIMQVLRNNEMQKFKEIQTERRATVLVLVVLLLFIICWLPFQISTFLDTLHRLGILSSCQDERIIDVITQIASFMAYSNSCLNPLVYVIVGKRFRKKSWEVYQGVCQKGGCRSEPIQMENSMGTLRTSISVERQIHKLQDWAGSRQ
The assay is described as follows: Calcium mobilization, CHO cells, WT-B2R & CryoEM-Gq. It counts as cell-based. The following applies: kallidin-induced calcium mobilization, Mean±S.E.M. from three independent experiments. As to the method:
(§4) There was a 10xHis tag at the N-terminus of each subunit.
as §1
(§5) Supplementary Table 1 . Calcium mobilization results of WT and mutated
(§6) constructs. Emax and pEC50 values were presented as Mean±S.E.M. from three
(§7) independent experiments. Source data are provided as a Source Data file.

Assay [3] has as its target T3, CryoEM B2R (MBP fusion) with CryoEM Gq (R183Q, Q209L) (Homo sapiens, UniProt P30411).
T3 construct: HA tag (N); 10xHis tag + TEV site (N); expressed in transfected cells; host or cells: CHO cells
T3 sequence (P30411 29-391): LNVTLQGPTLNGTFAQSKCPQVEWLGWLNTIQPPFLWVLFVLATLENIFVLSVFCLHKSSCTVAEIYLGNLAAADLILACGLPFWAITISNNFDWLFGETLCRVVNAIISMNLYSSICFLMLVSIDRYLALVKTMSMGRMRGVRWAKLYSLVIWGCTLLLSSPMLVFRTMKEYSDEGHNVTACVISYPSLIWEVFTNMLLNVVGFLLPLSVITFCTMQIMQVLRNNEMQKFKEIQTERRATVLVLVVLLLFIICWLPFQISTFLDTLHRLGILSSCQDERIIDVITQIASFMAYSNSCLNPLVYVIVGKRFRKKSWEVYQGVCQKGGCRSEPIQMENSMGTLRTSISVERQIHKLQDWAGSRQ
T3 sequence (P50148 1-359 R183Q/Q209L partner): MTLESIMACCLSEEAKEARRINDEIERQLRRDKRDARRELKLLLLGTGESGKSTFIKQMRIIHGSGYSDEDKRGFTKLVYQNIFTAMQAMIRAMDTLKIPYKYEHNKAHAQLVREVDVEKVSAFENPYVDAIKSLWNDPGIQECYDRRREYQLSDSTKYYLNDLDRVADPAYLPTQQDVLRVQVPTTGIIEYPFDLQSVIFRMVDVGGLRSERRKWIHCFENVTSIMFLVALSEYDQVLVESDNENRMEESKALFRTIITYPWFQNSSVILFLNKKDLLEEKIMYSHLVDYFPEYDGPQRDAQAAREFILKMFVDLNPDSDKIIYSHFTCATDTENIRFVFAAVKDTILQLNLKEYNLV
The assay can be described thus: Calcium mobilization, CHO cells, CryoEM-B2R & CryoEM-Gq. It counts as cell-based. To be noted: kallidin-induced calcium mobilization, Mean±S.E.M. from three independent experiments. As to the method:
as §4, §1, §5, §6, §7

The target in another assay is T4, B2R W113A (Homo sapiens, UniProt P30411, W113A).
T4 construct: expressed in transfected cells; host or cells: CHO cells
The assay can be described thus: Calcium mobilization, CHO cells, B2R W113A. Format: cell-based. As to the method: as §1
(§8) Supplementary Table 3. […] Emax and
as §2, §3

The next assay has as its target T5, B2R F121A (Homo sapiens, UniProt P30411, F121A).
T5 construct: expressed in transfected cells; host or cells: CHO cells
The assay can be described thus: Calcium mobilization, CHO cells, B2R F121A. Format: cell-based. The procedure: as §1, §8, §2, §3

The target of another assay is T6, B2R Y201A (Homo sapiens, UniProt P30411, Y201A).
T6 construct: expressed in transfected cells; host or cells: CHO cells
T6 sequence (P30411 whole entry Y201A): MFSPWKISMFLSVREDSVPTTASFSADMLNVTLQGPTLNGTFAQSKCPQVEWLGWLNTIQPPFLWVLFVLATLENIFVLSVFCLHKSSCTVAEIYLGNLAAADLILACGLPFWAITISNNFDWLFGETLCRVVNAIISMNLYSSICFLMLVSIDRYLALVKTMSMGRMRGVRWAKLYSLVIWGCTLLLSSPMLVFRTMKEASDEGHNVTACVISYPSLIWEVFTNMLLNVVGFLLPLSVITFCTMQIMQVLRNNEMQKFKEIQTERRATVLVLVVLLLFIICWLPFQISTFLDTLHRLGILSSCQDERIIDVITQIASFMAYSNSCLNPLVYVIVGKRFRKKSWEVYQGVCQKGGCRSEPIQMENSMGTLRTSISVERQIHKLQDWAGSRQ
T6 sequence (P50148 whole entry partner): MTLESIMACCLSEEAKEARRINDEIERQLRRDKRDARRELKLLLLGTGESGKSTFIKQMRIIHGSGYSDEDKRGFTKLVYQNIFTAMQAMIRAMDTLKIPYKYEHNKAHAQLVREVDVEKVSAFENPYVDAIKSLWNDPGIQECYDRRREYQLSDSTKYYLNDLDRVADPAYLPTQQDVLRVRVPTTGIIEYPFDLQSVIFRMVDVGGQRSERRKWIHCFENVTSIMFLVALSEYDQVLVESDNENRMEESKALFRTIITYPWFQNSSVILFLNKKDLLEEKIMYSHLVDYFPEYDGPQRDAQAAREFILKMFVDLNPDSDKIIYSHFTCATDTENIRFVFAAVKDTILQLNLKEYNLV
T6 sequence (P62873 2-340 partner limits assumed): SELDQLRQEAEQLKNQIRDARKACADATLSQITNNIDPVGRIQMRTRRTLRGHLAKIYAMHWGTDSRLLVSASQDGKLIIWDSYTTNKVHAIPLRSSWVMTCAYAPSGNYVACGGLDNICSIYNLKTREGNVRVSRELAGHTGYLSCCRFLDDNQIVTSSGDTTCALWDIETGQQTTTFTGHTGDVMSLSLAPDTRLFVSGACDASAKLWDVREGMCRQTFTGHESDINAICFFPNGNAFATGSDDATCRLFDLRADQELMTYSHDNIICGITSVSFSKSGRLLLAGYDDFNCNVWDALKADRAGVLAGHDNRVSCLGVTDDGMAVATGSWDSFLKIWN
T6 sequence (P59768 2-68 partner limits assumed): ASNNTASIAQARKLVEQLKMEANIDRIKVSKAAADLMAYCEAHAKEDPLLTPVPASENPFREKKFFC
The assay is described as follows: Calcium mobilization, CHO cells, B2R Y201A. Format: cell-based. As to the method: as §1, §8, §2, §3

A further assay addresses T7, B2R F286A (Homo sapiens, UniProt P30411, F286A).
T7 construct: expressed in transfected cells; host or cells: CHO cells
The assay can be described thus: Calcium mobilization, CHO cells, B2R F286A. It counts as cell-based. As to the method: as §1, §8, §2, §3

The target of another assay is T8, B2R R297A (Homo sapiens, UniProt P30411, R297A).
T8 construct: expressed in transfected cells; host or cells: CHO cells
T8 sequence (P30411 whole entry R297A): as the sequence (P30411 whole entry Y201A) above, with A201Y, R297A counted along it
T8 sequence (P50148 whole entry partner): as the sequence (P50148 whole entry partner) above
T8 sequence (P62873 2-340 partner limits assumed): as the sequence (P62873 2-340 partner limits assumed) above
T8 sequence (P59768 2-68 partner limits assumed): as the sequence (P59768 2-68 partner limits assumed) above
The assay is described as follows: Calcium mobilization, CHO cells, B2R R297A. It counts as cell-based. As to the method:
as §1, §8, §2, §3

The next assay has as its target T9, B2R Y322A (Homo sapiens, UniProt P30411, Y322A).
T9 construct: expressed in transfected cells; host or cells: CHO cells
The assay can be described thus: Calcium mobilization, CHO cells, B2R Y322A. It counts as cell-based. The procedure:
as §1, §8, §2, §3

The target in the next assay is T10, B2R E204A (Homo sapiens, UniProt P30411, E204A).
T10 construct: expressed in transfected cells; host or cells: CHO cells
The assay is described as follows: Calcium mobilization, CHO cells, B2R E204A. It counts as cell-based. The procedure:
as §1, §8, §2, §3

Another assay concerns the target T11, B2R I213A (Homo sapiens, UniProt P30411, I213A).
T11 construct: expressed in transfected cells; host or cells: CHO cells
The assay can be described thus: Calcium mobilization, CHO cells, B2R I213A. Format: cell-based. As to the method: as §1, §8, §2, §3

Another assay deals with T12, B2R S289A (Homo sapiens, UniProt P30411, S289A).
T12 construct: expressed in transfected cells; host or cells: CHO cells
The assay is described as follows: Calcium mobilization, CHO cells, B2R S289A. It counts as cell-based. The procedure: as §1, §8, §2, §3

For a further assay, the target named is T13, B2R T290A (Homo sapiens, UniProt P30411, T290A).
T13 construct: expressed in transfected cells; host or cells: CHO cells
The assay is described as follows: Calcium mobilization, CHO cells, B2R T290A. It counts as cell-based. The procedure: as §1, §8, §2, §3

In a further assay the target is T14, B2R D293A (Homo sapiens, UniProt P30411, D293A).
T14 construct: expressed in transfected cells; host or cells: CHO cells
The assay can be described thus: Calcium mobilization, CHO cells, B2R D293A. Format: cell-based. The procedure:
as §1, §8, §2, §3

The target of a further assay is T15, B2R D311A (Homo sapiens, UniProt P30411, D311A).
T15 construct: expressed in transfected cells; host or cells: CHO cells
The assay can be described thus: Calcium mobilization, CHO cells, B2R D311A. Format: cell-based. The procedure:
as §1, §8, §2, §3

A further assay has as its target T16, B2R Q315A (Homo sapiens, UniProt P30411, Q315A).
T16 construct: expressed in transfected cells; host or cells: CHO cells
The assay is described as follows: Calcium mobilization, CHO cells, B2R Q315A. It counts as cell-based. As to the method:
as §1, §8, §2, §3

The next assay concerns B2R. To be noted: cited from earlier work. The source says:
The kallikrein-kinin system (KKS) consists of kininogens, kallikrein enzymes, kinins, type 1 and type 2 bradykinin receptors (B1R and B2R), which plays important roles in vasodilation, inflammation, vascular permeability, cardioprotection, coagulation, and pain[1]–[4]. Kinins are short-lived peptides of various lengths and they are produced by enzymatic hydrolysis of precursor kininogens. […] Both kinins ...

Data on two compounds can be found in article PMC8821558, “Cryo-EM structures of human bradykinin receptor-Gq proteins complexes” (Nature Communications, 2022).

T11 sequence (P30411 whole entry I213A): as the sequence (P30411 whole entry Y201A) above, with A201Y, I213A counted along it
T11 sequence (P50148 whole entry partner): as the sequence (P50148 whole entry partner) above
T11 sequence (P62873 2-340 partner limits assumed): as the sequence (P62873 2-340 partner limits assumed) above
T11 sequence (P59768 2-68 partner limits assumed): as the sequence (P59768 2-68 partner limits assumed) above
T5 sequence (P30411 whole entry F121A): as the sequence (P30411 whole entry Y201A) above, with F121A, A201Y counted along it
T5 sequence (P50148 whole entry partner): as the sequence (P50148 whole entry partner) above
T5 sequence (P62873 2-340 partner limits assumed): as the sequence (P62873 2-340 partner limits assumed) above
T5 sequence (P59768 2-68 partner limits assumed): as the sequence (P59768 2-68 partner limits assumed) above

As for `NCCCC[C@H](N)C(=O)N[C@@H](CCCN=C(N)N)C(=O)N1CCC[C@H]1C(=O)N1CCC[C@H]1C(=O)NCC(=O)N[C@@H](Cc1ccccc1)C(=O)N[C@@H](CO)C(=O)N1CCC[C@H]1C(=O)N[C@@H](Cc1ccccc1)C(=O)N[C@@H](CCCN=C(N)N)C(=O)O` [kallidin], the EC50 in assay [1] was 0.753 nM; in assay [2], 2.39 nM; in assay [3] it was 6.67 nM; on B2R W113A, 1050 nM; at B2R F121A it was 774 nM; at B2R Y201A, 92.9 nM. Moreover, the EC50 was 112 nM on B2R F286A; 1.62 nM at B2R R297A; 21.5 nM on B2R Y322A; 13 nM at B2R E204A; 110 nM on B2R I213A; 1.38 nM on B2R S289A. Further, the EC50 at B2R T290A is 23.7 nM; at B2R D293A, 5.38 nM; at B2R D311A it was 16.7 nM; at B2R Q315A, 66.7 nM.
As to “D-Arg-Arg-Pro-Hyp-Gly-Thi-Ser-D-Tic-Oic-Arg [icatibant]”, the “antagonist class at B2R” value in the assay on B2R was “B2R selective antagonist”.

The term EC50 denotes the midpoint of the concentration-response curve.
